Species on record: Rattus norvegicus
Experiment: DrugMatrix - Regimen: Daily Repeat
Assay type: toxicity, organism-based, Sprague-Dawley
Set-up: regimen Daily Repeat, gender Male, age 6-8 weeks
Conditions: in vivo, po, route oral GAVAGE, vehicle .5 % CMC; for ABSOLUTE BASOPHIL / ABSOLUTE EOSINOPHIL / ABSOLUTE LYMPHOCYTE / ABSOLUTE MONOCYTE / ABSOLUTE SEGMENTED NEUTROPHIL / BASOPHIL / EOSINOPHIL / ERYTHROCYTE COUNT / HEMATOCRIT / HEMOGLOBIN / LEUKOCYTE COUNT / LYMPHOCYTE / MEAN CORPUSCULAR HEMOGLOBIN / MEAN CORPUSCULAR HEMOGLOBIN CONCENTRATION / MEAN CORPUSCULAR VOLUME / MONOCYTE / NEUTROPHIL / NUCLEATED RED BLOOD CELLS / PLATELET COUNT: tissue Blood; for ALANINE AMINOTRANSFERASE / ALBUMIN / ALKALINE PHOSPHATASE / ASPARTATE AMINOTRANSFERASE / BLOOD UREA NITROGEN / CARBON DIOXIDE / CHLORIDE / CHOLESTEROL / CREATINE PHOSPHOKINASE / CREATININE / GLUCOSE / LACTATE DEHYDROGENASE / LIPASE / PHOSPHORUS / POTASSIUM / SODIUM / TOTAL BILIRUBIN / TOTAL PROTEIN / URIC ACID: tissue Plasma
[1] = 0 mg/kg, 72 h, dose level Control, time 3 day
[2] = 0 mg/kg, 120 h, dose level Control, time 5 day
[3] = 3 mg/kg, 72 h, dose level Low, time 3 day

With O=c1[nH]cc(F)c(=O)[nH]1 [FLUOROURACIL] the “ABSOLUTE BASOPHIL” value [1] was 0 CELLS/uL, the “ABSOLUTE EOSINOPHIL” value [1] was 130.33 CELLS/uL and the “ABSOLUTE LYMPHOCYTE” value [1] was 10030.67 CELLS/uL. The “ABSOLUTE MONOCYTE” value [1] was 41 CELLS/uL, the “ABSOLUTE SEGMENTED NEUTROPHIL” value [1] was 1298 CELLS/uL and the BASOPHIL [1] was 0%. For the same compound, the EOSINOPHIL [1] was 1%, the “ERYTHROCYTE COUNT” value [1] was 5.22 x10E6/uL and the HEMATOCRIT [1] was 33.53%. For the same compound, the HEMOGLOBIN [1] was 12.73 G/DL, the “LEUKOCYTE COUNT” value [1] was 11.5 x10E3/uL and the LYMPHOCYTE [1] was 87.67%. For the same compound, the “MEAN CORPUSCULAR HEMOGLOBIN” value [1] was 24.45 pg, the “MEAN CORPUSCULAR HEMOGLOBIN CONCENTRATION” value [1] was 37.97 G/DL and the “MEAN CORPUSCULAR VOLUME” value [1] was 64.33 fL. For the same compound, the MONOCYTE [1] was 0.33%, the NEUTROPHIL [1] was 11% and the “NUCLEATED RED BLOOD CELLS” value [1] was 0 /100WBC. The “PLATELET COUNT” value [1] was 1310.5 x10E3/uL, the “ALANINE AMINOTRANSFERASE” value [1] was 52 u/L and the ALBUMIN [1] was 4.22 G/DL. For the same compound, the “ALKALINE PHOSPHATASE” value [1] was 340.17 u/L, the “ASPARTATE AMINOTRANSFERASE” value [1] was 87.5 u/L and the “BLOOD UREA NITROGEN” value [1] was 15.17 mg/dL. The “CARBON DIOXIDE” value [1] was 25.5 mmol/L, the CHLORIDE [1] was 101.83 MEQ/L and the CHOLESTEROL [1] was 68.17 mg/dL. The “CREATINE PHOSPHOKINASE” value [1] was 379.67 u/L, the CREATININE [1] was 0.17 mg/dL and the GLUCOSE [1] was 181.67 mg/dL. For the same compound, the “LACTATE DEHYDROGENASE” value [1] was 256.17 u/L, the LIPASE [1] was 8 u/L and the PHOSPHORUS [1] was 12.1 mg/dL. For the same compound, the POTASSIUM [1] was 5.88 MEQ/L, the SODIUM [1] was 143.67 MEQ/L and the “TOTAL BILIRUBIN” value [1] was 0.18 mg/dL. The “TOTAL PROTEIN” value [1] was 5.92 G/DL, the “URIC ACID” value [1] was 1.7 mg/dL and the “ABSOLUTE BASOPHIL” value [2] was 0 CELLS/uL. For the same compound, the “ABSOLUTE EOSINOPHIL” value [2] was 31 CELLS/uL, the “ABSOLUTE LYMPHOCYTE” value [2] was 9599.17 CELLS/uL and the “ABSOLUTE MONOCYTE” value [2] was 52.83 CELLS/uL. For the same compound, the “ABSOLUTE SEGMENTED NEUTROPHIL” value [2] was 1050.33 CELLS/uL, the BASOPHIL [2] was 0% and the EOSINOPHIL [2] was 0.33%. For the same compound, the “ERYTHROCYTE COUNT” value [2] was 5.53 x10E6/uL, the HEMATOCRIT [2] was 35.8% and the HEMOGLOBIN [2] was 13.53 G/DL. The “LEUKOCYTE COUNT” value [2] was 10.73 x10E3/uL, the LYMPHOCYTE [2] was 89% and the “MEAN CORPUSCULAR HEMOGLOBIN” value [2] was 24.47 pg. The “MEAN CORPUSCULAR HEMOGLOBIN CONCENTRATION” value [2] was 37.82 G/DL, the “MEAN CORPUSCULAR VOLUME” value [2] was 64.7 fL and the MONOCYTE [2] was 0.5%. The NEUTROPHIL [2] was 10.17%, the “NUCLEATED RED BLOOD CELLS” value [2] was 0 /100WBC and the “PLATELET COUNT” value [2] was 1028.5 x10E3/uL. For the same compound, the “ALANINE AMINOTRANSFERASE” value [2] was 45.33 u/L, the ALBUMIN [2] was 4.33 G/DL and the “ALKALINE PHOSPHATASE” value [2] was 351.83 u/L. The “ASPARTATE AMINOTRANSFERASE” value [2] was 73.5 u/L, the “BLOOD UREA NITROGEN” value [2] was 17.83 mg/dL and the “CARBON DIOXIDE” value [2] was 24.67 mmol/L. The CHLORIDE [2] was 100 MEQ/L, the CHOLESTEROL [2] was 67 mg/dL and the “CREATINE PHOSPHOKINASE” value [2] was 284 u/L. The CREATININE [2] was 0.2 mg/dL, the GLUCOSE [2] was 152.33 mg/dL and the “LACTATE DEHYDROGENASE” value [2] was 108.67 u/L. For the same compound, the LIPASE [2] was 8.17 u/L, the PHOSPHORUS [2] was 11.17 mg/dL and the POTASSIUM [2] was 6.14 MEQ/L. For the same compound, the SODIUM [2] was 144.68 MEQ/L, the “TOTAL BILIRUBIN” value [2] was 0.22 mg/dL and the “TOTAL PROTEIN” value [2] was 6.08 G/DL. For the same compound, the “URIC ACID” value [2] was 1.27 mg/dL, the “ABSOLUTE BASOPHIL” value [3] was 0 CELLS/uL and the “ABSOLUTE EOSINOPHIL” value [3] was 34 CELLS/uL. For the same compound, the “ABSOLUTE LYMPHOCYTE” value [3] was 9566.33 CELLS/uL, the “ABSOLUTE MONOCYTE” value [3] was 34 CELLS/uL and the “ABSOLUTE SEGMENTED NEUTROPHIL” value [3] was 1732.33 CELLS/uL. The BASOPHIL [3] was 0%, the EOSINOPHIL [3] was 0.33% and the “ERYTHROCYTE COUNT” value [3] was 5.74 x10E6/uL. For the same compound, the HEMATOCRIT [3] was 36.43%, the HEMOGLOBIN [3] was 13.5 G/DL and the “LEUKOCYTE COUNT” value [3] was 11.37 x10E3/uL. For the same compound, the LYMPHOCYTE [3] was 84%, the “MEAN CORPUSCULAR HEMOGLOBIN” value [3] was 23.57 pg and the “MEAN CORPUSCULAR HEMOGLOBIN CONCENTRATION” value [3] was 37.07 G/DL. The “MEAN CORPUSCULAR VOLUME” value [3] was 63.6 fL, the MONOCYTE [3] was 0.33% and the NEUTROPHIL [3] was 15.33%. The “NUCLEATED RED BLOOD CELLS” value [3] was 0 /100WBC, the “PLATELET COUNT” value [3] was 984 x10E3/uL and the “ALANINE AMINOTRANSFERASE” value [3] was 53.67 u/L. For the same compound, the ALBUMIN [3] was 4.33 G/DL, the “ALKALINE PHOSPHATASE” value [3] was 357 u/L and the “ASPARTATE AMINOTRANSFERASE” value [3] was 102 u/L. For the same compound, the “BLOOD UREA NITROGEN” value [3] was 15 mg/dL, the “CARBON DIOXIDE” value [3] was 26 mmol/L and the CHLORIDE [3] was 100.67 MEQ/L. For the same compound, the CHOLESTEROL [3] was 72.33 mg/dL, the “CREATINE PHOSPHOKINASE” value [3] was 938.33 u/L and the CREATININE [3] was 0.19 mg/dL. The GLUCOSE [3] was 156 mg/dL, the “LACTATE DEHYDROGENASE” value [3] was 212 u/L and the LIPASE [3] was 8.67 u/L. For the same compound, the PHOSPHORUS [3] was 12.53 mg/dL, the POTASSIUM [3] was 6.78 MEQ/L and the SODIUM [3] was 143.77 MEQ/L. For the same compound, the “TOTAL BILIRUBIN” value [3] was 0.23 mg/dL and the “TOTAL PROTEIN” value [3] was 6.07 G/DL.

— ChEMBL document CHEMBL3885881, “DrugMatrix”
